This note sets out measurements from patent publication US7196192B2, “28-epirapalogs” (Ariad Gene Therapeutics, Inc., priority 1999, dated 2007).

Structures are written as SMILES. Like-named read-outs stand apart in the source and are kept apart here.

One assay concerns the target FKBP (Homo sapiens, UniProt P62942). The experiment in a line: FKBP competitive binding assay based on fluorescence polarization (FP). As to conditions: competitive FP binding. The method, then:
A Competitive Binding FP Assay is described in detail in WO99/36553 and WO96/41865. That assay permits the in vitro measurement of an IC50 value for a given compound which reflects its ability to bind to an FKBP-protein in competition with a labeled FKBP ligand, such as, for example, FK506.
(§1) A diverse group of C7-modified 28-epirapalogs were prepared as described in Example 4.
A general note: Fluorescence polarisation rises when a labelled molecule tumbles more slowly, as on binding a larger partner.

For assay [1], the target named is T1, transcriptional switch components containing FKBP and 2098L mutant FRB domains (Homo sapiens, UniProt P42345+P62942).
T1 construct: transcriptional switchcomponents containing FKBP and 2098L mutant FRB domains, respectively; fused on or other part: The two switch components are separate chimeric proteins; Neither is given for this cell line
T1 sequence (P62942 2-108 limits assumed, stated change not applied, other chains not shown): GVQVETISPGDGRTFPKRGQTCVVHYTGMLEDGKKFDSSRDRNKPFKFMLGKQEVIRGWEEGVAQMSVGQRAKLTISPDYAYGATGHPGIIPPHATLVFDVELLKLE
Nature of the assay: transcription assay in engineered HD1080 cells expressing SEAP (txn 2098L). In kind it is cell-based. Particulars: for TXN 2098L peak relative to rapamycin peak: superscript mark on EC50 cell. A digest of the protocol: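 HT1080-type engineered HD1080 cells constitutively express FKBP and 2098L-mutant FRB switch components and express SEAP upon compound-induced multimerization. Compound added to medium; secreted SEAP reporter measured after incubation. EC50 derived.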

In the next assay the test system is murine splenocyte. The experiment in a line: murine splenocyte assay for immunosuppressive activity. Particulars: read-out: Splenocyte IC50. The format is cell-based. The protocol: 3. Conventional murine splenocyte assay for immunosuppressive activity.
as §1

[2] abbreviates: methods of Example 2.5, read-out: FKBP IC50.
[3] abbreviates: cellular transcription assay, methods of Example 2.5, read-out: TXN 2098L EC50.
[4] abbreviates: mouse splenocyte assay, methods of Example 2.5.
[5] abbreviates: Mus musculus, Splenocyte, mouse splenocyte assay, methods of Example 2.5.
Setting [6] is: FKBP IC50 (nM), methods of Example 2.5.
[7] abbreviates: read-out: TXN 2098L EC50, cellular transcription assay, methods of Example 2.5.

Chain of FKBP (P62942 whole entry): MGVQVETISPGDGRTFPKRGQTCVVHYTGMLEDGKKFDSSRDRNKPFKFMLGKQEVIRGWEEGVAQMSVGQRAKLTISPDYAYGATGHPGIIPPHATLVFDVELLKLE

One may read the IC50 as the concentration that inhibits the measured activity by half. As usually defined, the EC50 is the concentration giving half of the maximal effect. As to `CO[C@@H]1C[C@H](C[C@@H](C)[C@@H]2CC(=O)[C@H](C)/C=C(\C)[C@H](O)[C@@H](OC)C(=O)[C@H](C)C[C@H](C)/C=C/C=C/C=C(\C)[C@H](N(C)C(=O)Oc3ccc(C)cc3)C[C@@H]3CC[C@@H](C)[C@@](O)(O3)C(=O)C(=O)N3CCCC[C@H]3C(=O)O2)CC[C@H]1O` [28-epi-7R-N-Me-p-tolylcarbamate], the IC50 on FKBP (setting [2]) stood at 119 nM; in the assay on murine splenocyte (setting [4]), 393 nM. Moreover, the EC50 in assay [1] (setting [3]) is 70 nM.
Take `COC1CC(CC(C)C2CC(=O)C(C)C=C(C)C(O)C(OC)C(=O)C(C)CC(C)C=CC=CC=C(C)C(NS(=O)(=O)N(C)C)CC3CCC(C)C(O)(O3)C(=O)C(=O)N3CCCCC3C(=O)O2)CCC1O` (stereo not drawn) [28-epi-7S-dimethylsulfamide]: the IC50 on FKBP (setting [2]) amounted to 13 nM; with murine splenocyte (setting [4]), 879 nM. Moreover, the EC50 in assay [1] (setting [3]) was determined as 20 nM. The “TXN 2098L peak relative to rapamycin peak” value in assay [1] is on record as “(+) (peak was >125% rapamycin peak)”.
For `CCOC(=O)N(C)C1CC2CCC(C)C(O)(O2)C(=O)C(=O)N2CCCCC2C(=O)OC(C(C)CC2CCC(O)C(OC)C2)CC(=O)C(C)C=C(C)C(O)C(OC)C(=O)C(C)CC(C)C=CC=CC=C1C` (single isomer, unassigned) [28-epi-7S-N-methyl-ethylcarbamate] the same measures were 30 nM, 2290 nM, 12 nM and “(−) (peak was <80% rapamycin peak)”.
With `CCCCS(=O)(=O)N[C@H]1C[C@@H]2CC[C@@H](C)[C@@](O)(O2)C(=O)C(=O)N2CCCC[C@H]2C(=O)O[C@H]([C@H](C)C[C@@H]2CC[C@@H](O)[C@H](OC)C2)CC(=O)[C@H](C)/C=C(\C)[C@H](O)[C@@H](OC)C(=O)[C@H](C)C[C@H](C)/C=C/C=C/C=C/1C` [28-epi-7S-butanesulfonamide], the half-maximal inhibitory concentration (IC50) is 9.2 nM on FKBP (setting [2]) and 152 nM in the assay with murine splenocyte (setting [5]). Also, the EC50 in assay [1] (setting [3]) is 11 nM. The “TXN 2098L peak relative to rapamycin peak” value in assay [1] was “(+) (peak was >125% rapamycin peak)”.
Consider `CCN([C@H]1C[C@@H]2CC[C@@H](C)[C@@](O)(O2)C(=O)C(=O)N2CCCC[C@H]2C(=O)O[C@H]([C@H](C)C[C@@H]2CC[C@@H](O)[C@H](OC)C2)CC(=O)[C@H](C)/C=C(\C)[C@H](O)[C@@H](OC)C(=O)[C@H](C)C[C@H](C)/C=C/C=C/C=C/1C)S(C)(=O)=O` [28-epi-7S-N-Et-methanesulfonamide], for which the IC50 is 31 nM on FKBP (setting [6]) and 1360 nM in the assay with murine splenocyte (setting [5]). Moreover, the EC50 in assay [1] (setting [7]) was found to be 8 nM. In addition, the “TXN 2098L peak relative to rapamycin peak” value in assay [1] was “(+) (peak was >125% rapamycin peak)”.
Turning to `COC1CC(CC(C)C2CC(=O)C(C)C=C(C)C(O)C(OC)C(=O)C(C)CC(C)C=CC=CC=C(C)C(NS(=O)(=O)N(C)C)CC3CCC(C)C(O)(O3)C(=O)C(=O)N3CCCCC3C(=O)O2)CCC1O` (stereo not drawn) [28-epi-7R-dimethylsulfamide], the values for the half-maximal inhibitory concentration (IC50) at FKBP (setting [2]) and in the assay on murine splenocyte (setting [4]) were 29 nM and 1840 nM, respectively. The EC50 in assay [1] (setting [3]) was 20 nM. The “TXN 2098L peak relative to rapamycin peak” value in assay [1] was “(+) (peak was >125% rapamycin peak)”.
With `CO[C@@H]1C[C@H](C[C@@H](C)[C@@H]2CC(=O)[C@H](C)/C=C(\C)[C@H](O)[C@@H](OC)C(=O)[C@H](C)C[C@H](C)/C=C/C=C/C=C(\C)[C@@H](Oc3ccccc3)C[C@@H]3CC[C@@H](C)[C@@](O)(O3)C(=O)C(=O)N3CCCC[C@H]3C(=O)O2)CC[C@H]1O` [28-epi-7S-phenyloxy], the figures for the IC50 at FKBP (setting [2]) and in the assay with murine splenocyte (setting [5]) were 36 nM and 478 to 2500 nM, respectively. Further, in assay [1] (setting [3]), the EC50 stood at 8 nM. The “TXN 2098L peak relative to rapamycin peak” value in assay [1] is recorded as “(−) (peak was <80% rapamycin peak)”.
`CO[C@H]1C[C@@H]2CC[C@@H](C)[C@@](O)(O2)C(=O)C(=O)N2CCCC[C@H]2C(=O)O[C@H]([C@H](C)C[C@@H]2CC[C@@H](OCc3ccccc3)[C@H](OC)C2)CC(=O)[C@H](C)/C=C(\C)[C@H](O)[C@@H](OC)C(=O)[C@H](C)C[C@H](C)/C=C/C=C/C=C/1C` [43-O-benzyl-28-epirapamycin]: the IC50 at FKBP (fluorescein-labelled FK506 probe (AP1491), read-out: FKBP binding IC50) was 63 nM; with murine splenocyte (Mus musculus, Splenocyte, murine splenocyte assay, immunosuppressive activity), ~1200 nM. The EC50 in assay [1] (HD1080 cells, FKBP and 2098L mutant FRB switch, SEAP reporter, read-out: txn 2098L EC50) is 12 nM.
As for `CO[C@@H]1C[C@H](C[C@@H](C)[C@@H]2CC(=O)[C@H](C)/C=C(\C)[C@H](O)[C@@H](OC)C(=O)[C@H](C)C[C@H](C)/C=C/C=C/C=C(\C)[C@H](N(C)S(=O)(=O)c3ccc(C)cc3)C[C@@H]3CC[C@@H](C)[C@@](O)(O3)C(=O)C(=O)N3CCCC[C@H]3C(=O)O2)CC[C@H]1O` [28-epi-7R-N-Me-p-toluenesulfonamide], the IC50 at FKBP (setting [6]) came out at 34 nM; in the assay with murine splenocyte (setting [5]), 12 nM. The EC50 in assay [1] (setting [7]) turned out to be 8 nM.
Take `CCN([C@@H]1C[C@@H]2CC[C@@H](C)[C@@](O)(O2)C(=O)C(=O)N2CCCC[C@H]2C(=O)O[C@H]([C@H](C)C[C@@H]2CC[C@@H](O)[C@H](OC)C2)CC(=O)[C@H](C)/C=C(\C)[C@H](O)[C@@H](OC)C(=O)[C@H](C)C[C@H](C)/C=C/C=C/C=C/1C)S(C)(=O)=O` [28-epi-7R-N-Et-methanesulfonamide]: the IC50 on FKBP (setting [6]) was determined as 31 nM; with murine splenocyte (setting [5]) it was 189 nM. The half-maximal effective concentration (EC50) in assay [1] (setting [7]) was found to be 8 nM. The “TXN 2098L peak relative to rapamycin peak” value in assay [1] is “(+) (peak was >125% rapamycin peak)”.
In the case of `CCCS(=O)(=O)N(C)C1CC2CCC(C)C(O)(O2)C(=O)C(=O)N2CCCCC2C(=O)OC(C(C)CC2CCC(O)C(OC)C2)CC(=O)C(C)C=C(C)C(O)C(OC)C(=O)C(C)CC(C)C=CC=CC=C1C` (single isomer, unassigned) [28-epi-7S-N-Me-propanesulfonamide], the IC50 on FKBP (setting [2]) was determined as 19 nM; with murine splenocyte (setting [5]), 2630 nM. For the same compound, in assay [1] (setting [3]), the EC50 is 35 nM. The “TXN 2098L peak relative to rapamycin peak” value in assay [1] was “(+) (peak was >125% rapamycin peak)”.
As for `COc1ccc(C2CC3CCC(C)C(O)(O3)C(=O)C(=O)N3CCCCC3C(=O)OC(C(C)CC3CCC(O)C(OC)C3)CC(=O)C(C)C=C(C)C(O)C(OC)C(=O)C(C)CC(C)C=CC=CC=C2C)c(OC)c1` (stereo not drawn) [28-epi-7R-dimethoxyphenyl], the IC50 was 54 nM on FKBP (setting [2]) and 22 to 28 nM in the assay with murine splenocyte (setting [4]). Also, the EC50 in assay [1] (setting [3]) was found to be 26 nM.
On the same counts, the results for `COC1CC(CC(C)C2CC(=O)C(C)C=C(C)C(O)C(OC)C(=O)C(C)CC(C)C=CC=CC=C(C)C(N(C)C(=O)OCC(C)C)CC3CCC(C)C(O)(O3)C(=O)C(=O)N3CCCCC3C(=O)O2)CCC1O` (single isomer, unassigned) [28-epi-7S-N-Me-isobutylcarbamate] are 19 nM, 1380 nM and 40 nM.
As to `CCOC(=O)N[C@H]1C[C@@H]2CC[C@@H](C)[C@@](O)(O2)C(=O)C(=O)N2CCCC[C@H]2C(=O)O[C@H]([C@H](C)C[C@@H]2CC[C@@H](O)[C@H](OC)C2)CC(=O)[C@H](C)/C=C(\C)[C@H](O)[C@@H](OC)C(=O)[C@H](C)C[C@H](C)/C=C/C=C/C=C/1C` [28-epi-7S-ethylcarbamate], the IC50 at FKBP (setting [6]) is 13 nM; with murine splenocyte (setting [5]), > 5000 nM. In addition, the half-maximal effective concentration (EC50) in assay [1] (setting [7]) was determined as 10 nM.
Take `COC1CC(CC(C)C2CC(=O)C(C)C=C(C)C(O)C(OC)C(=O)C(C)CC(C)C=CC=CC=C(C)C(OCc3ccccc3)CC3CCC(C)C(O)(O3)C(=O)C(=O)N3CCCCC3C(=O)O2)CCC1O` (single isomer, unassigned) [28-epi-7R-benzyloxy]: the IC50 was determined as 9.1 nM on FKBP (setting [2]) and 313 nM with murine splenocyte (setting [4]). The EC50 in assay [1] (setting [3]) came to 14 nM.
